The target of one series is SARS-CoV-2 PLpro (Severe acute respiratory syndrome coronavirus 2, UniProt P0DTD1). In words: FRET-based PLpro enzymatic assay. Format: biochemical. The protocol: The SARS-CoV-2 PL^pro enzymatic assays were carried out as follows. The assay was assembled in 96-well plates with 100 μl of 200 nM PL^Pro protein in PL^Pro reaction buffer [50 mM Hepes (pH 7.5), 0.01% Triton X-100, and 5 mM DTT]. Then, 1 μl of testing compound at various concentrations was added to each well and incubated at 30° C. for 30 minutes. The enzymatic reaction was initiated by adding 1 μl of 1 mM FRET substrate (the final substrate concentration is 10 μM). The reaction was monitored in a Cytation 5 image reader with filters for excitation at 360/40 nm and emission at 460/40 nm at 30° C. for 1 hour. The initial velocity of the enzymatic reaction with and without testing compounds was calculated by linear regression for the first 15 minutes of the kinetic progress curve. The IC50 values were calculated by plotting the initial velocity against various concentrations of testing compounds with a dose-response function in Prism 8 software.

The nature of series [1]: Cytotoxicity assay in Vero E6 cells (neutral red uptake). Type of series: cell-based. The following applies: African green monkey. The protocol: Briefly, 80.000 cells/ml of the tested cell lines were dispensed into 96-well cell culture plates at 100 μl per well Twenty-four hours later, the growth medium was removed and washed with 150 μl of PBS buffer. Two hundred microliters of fresh serum-free medium containing serial diluted compounds was added to each well. After incubating for 2 days at 37° C., the medium was removed and replaced with 100 μl of DMEM medium containing neutral red (40 μg/ml) and incubated for 2 to 4 hours at 37° C. The amount of neutral red taken up was determined by measuring the absorbance at 540 nm using a Multiskan FC Microplate Photometer (Thermo Fisher Scientific) The CC50 values were calculated from best-fit dose-response curves with variable slope in Prism 8.

Setting [2] is: 200 nM PLpro, 10 μM FRET substrate, 30 min preincubation at 30° C., read-out: IC50.
[3] abbreviates: Vero E6 cells, 2 days at 37° C., neutral red uptake, read-out: Vero CC50.

Where two headings read alike, the source gives them in different places.

What is called IC50 is the concentration that inhibits the measured activity by half. One may read the CC50 as the concentration giving 50% cytotoxicity. As to `Cc1ccc(N2CC3CCC(C2)N3C)cc1C(=O)N[C@H](C)c1cc(-c2ccn(C)n2)nc2ccccc12` [Example 102, 2-methyl-N—((R)-1-(2-(1-methyl-1H-pyrazol-3-yl)quinolin-4-yl)ethyl)-5-(8-methyl-3,8-diazabicyclo[3.2.1]octan-3-yl)benzamide], the IC50 on SARS-CoV-2 PLpro is under 0.5 µM. This molecule had a CC50 at 2 days in series [1] of 15.2 ± 1.09 µM.

With `Cc1ccc(OCCN(C)C)cc1C(=O)N[C@@H](C)c1cc(-c2cnn(C3CC3)c2)nc2ccccc12` [Example 20, (S)—N-(1-(2-(1-cyclopropyl-1H-pyrazol-4-yl)quinolin-4-yl)ethyl)-5-(2-(dimethylamino)ethoxy)-2-methylbenzamide], the IC50 on SARS-CoV-2 PLpro (setting [2]) was under 0.5 µM. Also, in series [1] (setting [3]), the CC50 at 2 days turned out to be 59.6 ± 8.56 µM.

In the case of `Cc1ccc(OCCN(C)C)cc1C(=O)N[C@H](C)c1cc(-c2cncnc2)nc2ccccc12` [Example 57, (R)-5-(2-(dimethylamino)ethoxy)-2-methyl-N-(1-(2-(pyrimidin-5-yl)quinolin-4-yl)ethyl)benzamide], the IC50 at SARS-CoV-2 PLpro (setting [2]) was 0.5 to 1 µM. For the same molecule, in series [1] (setting [3]), the CC50 at 2 days came to 74.6 ± 17.4 µM.

For the molecule `COc1cccc(-c2cc([C@@H](C)NC(=O)c3cc(OCCN(C)C)ccc3C)c3ccccc3n2)c1` [Example 67, (R)-5-(2-(dimethylamino)ethoxy)-N-(1-(2-(3-methoxyphenyl)-quinolin-4-yl)ethyl)-2-methylbenzamide], the IC50 on SARS-CoV-2 PLpro (setting [2]) was under 0.5 µM. Besides, the CC50 at 2 days in series [1] (setting [3]) was found to be 17.2 ± 3.25 µM.

As to `Cc1ccc(C2=CCN(C)CC2)cc1C(=O)N[C@H](C)c1cc(-c2cnn(C)c2)nc2ccccc12` [Example 86, (R)-2-methyl-5-(1-methyl-1,2,3,6-tetrahydropyridin-4-yl)-N-(1-(2-(1-methyl-1H-pyrazol-4-yl)quinolin-4-yl)ethyl)benzamide], the IC50 on SARS-CoV-2 PLpro (setting [2]) is 1 to 5 µM. For the same molecule, the CC50 at 2 days in series [1] (setting [3]) came to 92.7 ± 4.59 µM.

In the case of `CSc1ccc(-c2cc([C@@H](C)NC(=O)c3cc(OCCN(C)C)ccc3C)c3ccccc3n2)cc1` [Example 70, (R)-5-(2-(dimethylamino)ethoxy)-2-methyl-N-(1-(2-(4-(methylthio)phenyl)quinolin-4-yl)ethyl)benzamide], the IC50 at SARS-CoV-2 PLpro (setting [2]) is under 0.5 µM. Further, the CC50 at 2 days in series [1] (setting [3]) was 8.5 ± 2.01 µM.

As for `Cc1ccc(OCCN(C)C)cc1C(=O)N[C@H](C)c1cc(-c2cnn(CCN(C)C)c2)nc2ccccc12` [Example 12, (R)-5-(2-(dimethylamino)ethoxy)-N-(1-(2-(1-(2-(dimethylamino)ethyl)-1H-pyrazol-4-yl)quinolin-4-yl)ethyl)-2-methylbenzamide], the IC50 at SARS-CoV-2 PLpro (setting [2]) was under 0.5 µM. Further, in series [1] (setting [3]), the CC50 at 2 days came to 114 ± 18.7 µM.

`Cc1ccc(OCCN(C)C)cc1C(=O)N[C@@H](C)c1cc(-c2cnn(C(F)F)c2)nc2ccccc12` [Example 18]: the IC50 at SARS-CoV-2 PLpro (setting [2]) lay within 0.5 to 1 µM. Moreover, in series [1] (setting [3]), the CC50 at 2 days is 47.1 ± 6.43 µM.

On to `Cc1ccc(OCCN(C)C)cc1C(=O)N[C@H](C)c1cc(-c2ccc(N)nc2)nc2ccccc12` [Example 9, (R)—N-(1-(2-(6-aminopyridin-3-yl)quinolin-4-yl)ethyl)-5-(2-(dimethylamino)ethoxy)-2-methylbenzamide], for which the IC50 on SARS-CoV-2 PLpro (setting [2]) was under 0.5 µM. Further, the CC50 at 2 days in series [1] (setting [3]) is 36.2 ± 6.83 µM.

Molecule `Cc1ccc(N2CC3CCC(C2)N3C)cc1C(=O)NC1(c2cc(-c3cnn(C)c3)nc3ccccc23)CC1` [Example 112, 2-methyl-N-(1-(2-(1-methyl-1H-pyrazol-4-yl)quinolin-4-yl)cyclopropyl)-5-(8-methyl-3,8-diazabicyclo[3.2.1]octan-3-yl)benzamide] gave a 50% inhibitory concentration (IC50) against SARS-CoV-2 PLpro of under 0.5 µM. In addition, the midpoint of cytotoxicity in series [1], the CC50 at 2 days, lay at 53.8 ± 2.52 µM.

With `COCCn1cc(-c2cc([C@@H](C)NC(=O)c3cc(OCCN(C)C)ccc3C)c3ccccc3n2)cn1` [Example 6, (R)-5-(2-(dimethylamino)ethoxy)-N-(1-(2-(1-(2-methoxyethyl)-1H-pyrazol-4-yl)quinolin-4-yl)ethyl)-2-methylbenzamide], the IC50 at SARS-CoV-2 PLpro (setting [2]) is under 0.5 µM. Besides, the CC50 at 2 days in series [1] (setting [3]) amounted to 200 ± 86.4 µM.

For the molecule `Cc1ccc(OCCN(C)C)cc1C(=O)N[C@H](C)c1cc(-c2cnn(C(F)(F)F)c2)nc2ccccc12` [Example 63, (R)-5-(2-(dimethylamino)ethoxy)-2-methyl-N-(1-(2-(1-(trifluoro-methyl)-1H-pyrazol-4-yl)quinolin-4-yl)ethyl)benzamide], at SARS-CoV-2 PLpro (setting [2]), the IC50 is under 0.5 µM. In addition, the CC50 at 2 days in series [1] (setting [3]) was determined as 17.7 ± 2.04 µM.

Take `CCn1ccc(-c2cc([C@@H](C)NC(=O)c3cc(OC[C@H]4CCCN4C)ccc3C)c3ccccc3n2)n1` [Example 110, N—((R)-1-(2-(1-ethyl-1H-pyrazol-3-yl)quinolin-4-yl)ethyl)-2-methyl-5-(((R)-1-methylpyrrolidin-2-yl)methoxy)benzamide]: on SARS-CoV-2 PLpro (setting [2]), the IC50 is under 0.5 µM. In series [1] (setting [3]), the CC50 at 2 days stood at 46.3 ± 13.9 µM.

For `Cc1ccc(OCCN(C)C)cc1C(=O)N[C@H](C)c1cc(N2CCOCC2)nc2ccccc12` [Example 45, (R)-5-(2-(dimethylamino)ethoxy)-2-methyl-N-(1-(2-morpholinoquinoline-4-yl)ethyl)benzamide], the IC50 at SARS-CoV-2 PLpro (setting [2]) was 0.5 to 1 µM. Besides, the CC50 at 2 days in series [1] (setting [3]) amounted to 166 ± 33.2 µM.

In the case of `Cc1ccc(OCCN(C)C)cc1C(=O)N[C@H](C)c1cc(-c2cnn(CC(N)=O)c2)nc2ccccc12` [Example 24, (R)—N-(1-(2-(1-(2-amino-2-oxoethyl)-1H-pyrazol-4-yl)quinolin-4-yl)ethyl)-5-(2-(dimethylamino)ethoxy)-2-methylbenzamide], at SARS-CoV-2 PLpro (setting [2]), the 50% inhibitory concentration (IC50) is under 0.5 µM. Also, the CC50 at 2 days in series [1] (setting [3]) was over 250 µM.

As for `CCn1ccc(-c2cc([C@@H](C)NC(=O)c3cc(N4CCN(C)[C@H](C)C4)ccc3C)c3ccccc3n2)n1` [Example 104, 5-((R)-3,4-dimethylpiperazin-1-yl)-N—((R)-1-(2-(1-ethyl-1H-pyrazol-3-yl)quinolin-4-yl)ethyl)-2-methylbenzamide], on SARS-CoV-2 PLpro (setting [2]), the IC50 is under 0.5 µM. For the same molecule, in series [1] (setting [3]), the CC50 at 2 days was 30.5 ± 2.21 µM.

With `Cc1ccc(OCCN(C)C)cc1C(=O)N[C@H](C)c1cc(Cl)nc2ccccc12` [Example 11, (R)—N-(1-(2-chloroquinolin-4-yl)ethyl)-5-(2-(dimethylamino)-ethoxy)-2-methylbenzamide], at SARS-CoV-2 PLpro (setting [2]), the IC50 was 0.5 to 1 µM. For the same molecule, the CC50 at 2 days in series [1] (setting [3]) amounted to 101 ± 11.3 µM.

On to `Cc1ccc(OCCN(C)C)cc1C(=O)N[C@H](C)c1cc(-c2ccc(CN)s2)nc2ccccc12` [Example 55, (R)—N-(1-(2-(5-(aminomethyl)thiophen-2-yl)quinolin-4-yl)-ethyl)-5-(2-(dimethylamino)ethoxy)-2-methylbenzamide], for which, at SARS-CoV-2 PLpro (setting [2]), the IC50 is under 0.5 µM. Also, in series [1] (setting [3]), the CC50 at 2 days was found to be 34.6 ± 8.18 µM.

In the case of `Cc1ccc(N2CC[C@@H](N(C)C)C2)cc1C(=O)N[C@H](C)c1cc(-c2ccn(C)n2)nc2ccccc12` [Example 100, 5-((R)-3-(dimethylamino)pyrrolidin-1-yl)-2-methyl-N—((R)-1-(2-(1-methyl-1H-pyrazol-3-yl)quinolin-4-yl)ethyl)benzamide], the IC50 at SARS-CoV-2 PLpro (setting [2]) is under 0.5 µM. In addition, the CC50 at 2 days in series [1] (setting [3]) is 30.6 ± 1.72 µM.

Take `Cc1ccc(NC2(C)CN(C)C2)cc1C(=O)N[C@H](C)c1cc(-c2cnn(C)c2)nc2ccccc12` [Example 94, (R)-5-((1,3-dimethylazetidin-3-yl)amino)-2-methyl-N-(1-(2-(1-methyl-1H-pyrazol-4-yl)quinolin-4-yl)ethyl)benzamide]: the IC50 at SARS-CoV-2 PLpro (setting [2]) lay in the range of 1 to 5 µM. Further, the CC50 at 2 days in series [1] (setting [3]) turned out to be 154 µM.

The record behind these values is patent US20240382494A1, “THERAPEUTIC COMPOUNDS” (priority 2023, published 2024).
